In patent publication US8252946B2, “Crystalline forms of tigecycline hydrochloride” (Sandoz AG, priority 2007, dated 2012):

Tests used:
Type in all cases: physicochemical
[1] = Water solubility testing (saturated solution in distilled water, UV-vis at 347 nm)
Protocol: The finished dosage form contains lyophilized amorphous Tigecycline respectively Tigecycline hydrochloride. Before lyophilizing, Tigecycline respectively Tigecycline hydrochloride is dissolved in water, thus water solubility is an important factor to consider.
A UV-vis Lambda 35 spectrophotometer (Perkin-Elmer) was used (λ=347 nm, 1.0 cm quartz cells). Perkin Elmer® UV Win Lab-5.1 software was used.
A saturated solution of Tigecycline respectively Tigecycline hydrochloride in distilled water was prepared and the suspension was stirred at room temperature for 30 minutes with a stirring speed of 1000 U/min. The suspension was filtrated through a 0.45 μm filter. Finally the resulting solution was diluted 10000-fold and measured against water at a wavelength of 347 nm.

[2] = Thermal stability: 4-Epi-Tigecycline and total impurities at ambient conditions and after 7 days at 80° C.
Text: Tigecycline must be available in a physical stable form as well, in order to avoid degradation and as a consequence the building of undesired byproducts.

[3] = Conversion into other crystalline or amorphous forms on storing at elevated temperature; conditions: after storing for 7 days at 80° C.
[4] = Water content on storage at defined relative humidity at 25° C.
Protocol: The water content of crystalline form A of Tigecycline hydrochloride may vary from about 0-6.0% e.g. the water content is 0% when stored at 1.7% relative humidity at 25° C., 2.7% when stored at 42.7% relative humidity at 25° C. and 5.8% when stored at 80% relative humidity at 25° C.

[5] = Storage stability of lyophilized amorphous Tigecycline hydrochloride at room temperature; conditions: stored for about 9 months at room temperature
Protocol: Moreover crystalline forms A and B of Tigecycline hydrochloride of the present invention show better physical stability than amorphous Tigecycline hydrochloride. For example amorphous Tigecycline hydrochloride was prepared by lyophilization and stored for about 9 months at room temperature. […] Therefore amorphous Tigecycline hydrochloride is not suitable as an intermediate for the formulation of an anti-infective medicament, due to the low stability.

[6] = after storing for 7 days at 80° C.

Structure (SMILES): CN(C)c1cc(NC(=O)CNC(C)(C)C)c(O)c2c1C[C@H]1C[C@H]3[C@H](N(C)C)C(O)=C(C(N)=O)C(=O)[C@@]3(O)C(O)=C1C2=O.Cl [Form A, Tigecycline hydrochloride]
- water solubility compared with the other crystalline forms (in words) [1]: highest water solubility
- solubility thermodynamic at 30 min ([1]; water, saturated solution in distilled water, stirred 30 minutes at room temperature, filtered 0.45 μm, read-out: Water solubility, CONCENTRATION): 503 mg/mL
- change in 4-Epi-Tigecycline content (in words) [2, 6]: practically did not change
- change in total impurities (in words) [2, 6]: low
- 4-EPI-TIGECYCLINE AT AMBIENT CONDITIONS ([2]; listed as A, hydrochloride): 0.84
- TOTAL IMPURITIES AT AMBIENT CONDITIONS ([2]; listed as A, hydrochloride): 1.07
- conversion into other crystalline or amorphous forms [3]: did not convert
- water content, span of variation ([4]; may vary, depending on relative humidity): 0-6.0%
- water content ([4]; stored at 1.7% relative humidity at 25° C.): 0%
- water content ([4]; stored at 42.7% relative humidity at 25° C.): 2.7%
- water content ([4]; stored at 80% relative humidity at 25° C.): 5.8%

Structure (SMILES): CN(C)c1cc(NC(=O)CNC(C)(C)C)c(O)c2c1C[C@H]1C[C@H]3[C@H](N(C)C)C(O)=C(C(N)=O)C(=O)[C@@]3(O)C(O)=C1C2=O.Cl [Form B, Tigecycline hydrochloride]
- Water solubility, CONCENTRATION ([1]; saturated solution in distilled water, stirred 30 minutes at room temperature, filtered 0.45 μm, hydrochloride): 323 mg/mL
- 4-EPI-TIGECYCLINE AT AMBIENT CONDITIONS ([2]; listed as B, hydrochloride): 0.93
- TOTAL IMPURITIES AT AMBIENT CONDITIONS ([2]; listed as B, hydrochloride): 1.91

Structure (SMILES): CN(C)c1cc(NC(=O)CNC(C)(C)C)c(O)c2c1C[C@H]1C[C@H]3[C@H](N(C)C)C(O)=C(C(N)=O)C(=O)[C@@]3(O)C(O)=C1C2=O [WO 2006/128150 I, (4S,4aS,5aR,12aS)-4,7-Bis(dimethylamino)-9-[[[(1,1-dimethylethyl)amino]acetyl]amino]-1,4,4a,5,5a,6,11,12a-octahydro-3,10,12,12a-tetrahydroxy-1,11-dioxo-2-naphthacenecarboxamide]
- change in total impurities (in words) [2, 6]: tremendous increase
- 4-EPI-TIGECYCLINE AT AMBIENT CONDITIONS [2]: 0.36
- TOTAL IMPURITIES AT AMBIENT CONDITIONS [2]: 0.75

Structure (SMILES): CN(C)c1cc(NC(=O)CNC(C)(C)C)c(O)c2c1C[C@H]1C[C@H]3[C@H](N(C)C)C(O)=C(C(N)=O)C(=O)[C@@]3(O)C(O)=C1C2=O [WO 2006/128150 II, (4S,4aS,5aR,12aS)-4,7-Bis(dimethylamino)-9-[[[(1,1-dimethylethyl)amino]acetyl]amino]-1,4,4a,5,5a,6,11,12a-octahydro-3,10,12,12a-tetrahydroxy-1,11-dioxo-2-naphthacenecarboxamide]
- change in total impurities (in words) [2, 6]: tremendous increase
- 4-EPI-TIGECYCLINE AT AMBIENT CONDITIONS [2]: 1.04
- TOTAL IMPURITIES AT AMBIENT CONDITIONS [2]: 1.60

Structure (SMILES): CN(C)c1cc(NC(=O)CNC(C)(C)C)c(O)c2c1C[C@H]1C[C@H]3[C@H](N(C)C)C(O)=C(C(N)=O)C(=O)[C@@]3(O)C(O)=C1C2=O [WO 2006/128150 III, (4S,4aS,5aR,12aS)-4,7-Bis(dimethylamino)-9-[[[(1,1-dimethylethyl)amino]acetyl]amino]-1,4,4a,5,5a,6,11,12a-octahydro-3,10,12,12a-tetrahydroxy-1,11-dioxo-2-naphthacenecarboxamide]
- Water solubility, CONCENTRATION ([1]; saturated solution in distilled water, stirred 30 minutes at room temperature, filtered 0.45 μm): 174 mg/mL
- 4-EPI-TIGECYCLINE 7 DAYS AT 80° C. ([2]; after storing 7 days at 80° C.): 2.18
- TOTAL IMPURITIES 7 DAYS AT 80° C. ([2]; after storing 7 days at 80° C.): 4.46%
- 4-EPI-TIGECYCLINE AT AMBIENT CONDITIONS [2]: 0.16
- TOTAL IMPURITIES AT AMBIENT CONDITIONS [2]: 0.16%

Structure (SMILES): CN(C)c1cc(NC(=O)CNC(C)(C)C)c(O)c2c1C[C@H]1C[C@H]3[C@H](N(C)C)C(O)=C(C(N)=O)C(=O)[C@@]3(O)C(O)=C1C2=O [WO 2006/128150 IV, (4S,4aS,5aR,12aS)-4,7-Bis(dimethylamino)-9-[[[(1,1-dimethylethyl)amino]acetyl]amino]-1,4,4a,5,5a,6,11,12a-octahydro-3,10,12,12a-tetrahydroxy-1,11-dioxo-2-naphthacenecarboxamide]
- 4-EPI-TIGECYCLINE AT AMBIENT CONDITIONS [2]: 0.23
- TOTAL IMPURITIES AT AMBIENT CONDITIONS [2]: 0.40

Structure (SMILES): CN(C)c1cc(NC(=O)CNC(C)(C)C)c(O)c2c1C[C@H]1C[C@H]3[C@H](N(C)C)C(O)=C(C(N)=O)C(=O)[C@@]3(O)C(O)=C1C2=O [WO 2006/128150 V, (4S,4aS,5aR,12aS)-4,7-Bis(dimethylamino)-9-[[[(1,1-dimethylethyl)amino]acetyl]amino]-1,4,4a,5,5a,6,11,12a-octahydro-3,10,12,12a-tetrahydroxy-1,11-dioxo-2-naphthacenecarboxamide]
- 4-EPI-TIGECYCLINE AT AMBIENT CONDITIONS [2]: <0.05
- TOTAL IMPURITIES AT AMBIENT CONDITIONS [2]: 0.22

Structure (SMILES): CN(C)c1cc(NC(=O)CNC(C)(C)C)c(O)c2c1C[C@H]1C[C@H]3[C@H](N(C)C)C(O)=C(C(N)=O)C(=O)[C@@]3(O)C(O)=C1C2=O [WO 2007/127292 I, (4S,4aS,5aR,12aS)-4,7-Bis(dimethylamino)-9-[[[(1,1-dimethylethyl)amino]acetyl]amino]-1,4,4a,5,5a,6,11,12a-octahydro-3,10,12,12a-tetrahydroxy-1,11-dioxo-2-naphthacenecarboxamide]
- 4-EPI-TIGECYCLINE AT AMBIENT CONDITIONS ([2]; listed as WO2007/127792 I): 0.34
- TOTAL IMPURITIES AT AMBIENT CONDITIONS ([2]; listed as WO2007/127792 I): 0.59

Structure (SMILES): CN(C)c1cc(NC(=O)CNC(C)(C)C)c(O)c2c1C[C@H]1C[C@H]3[C@H](N(C)C)C(O)=C(C(N)=O)C(=O)[C@@]3(O)C(O)=C1C2=O [WO 2007/127292 II, (4S,4aS,5aR,12aS)-4,7-Bis(dimethylamino)-9-[[[(1,1-dimethylethyl)amino]acetyl]amino]-1,4,4a,5,5a,6,11,12a-octahydro-3,10,12,12a-tetrahydroxy-1,11-dioxo-2-naphthacenecarboxamide]
- 4-EPI-TIGECYCLINE AT AMBIENT CONDITIONS ([2]; listed as WO2007/127792 II): 0.17
- TOTAL IMPURITIES AT AMBIENT CONDITIONS ([2]; listed as WO2007/127792 II): 0.24

Structure (SMILES): CN(C)c1cc(NC(=O)CNC(C)(C)C)c(O)c2c1C[C@H]1C[C@H]3[C@H](N(C)C)C(O)=C(C(N)=O)C(=O)[C@@]3(O)C(O)=C1C2=O.Cl [amorphous Tigecycline hydrochloride, Tigecycline hydrochloride]
- 4-Epi-Tigecycline content [5]: 19.56%
- total impurities [5]: 21.55%
